Reference: patent US11104684B2, “Dimers of covalent NFKB inhibitors” (BOARD OF REGENTS OF THE UNIVERSITY OF NEBRASKA, priority 2016, dated 2021)

Assays:
A2780 cells = assay: Cell viability assay (PrestoBlue, 72 hour drug incubation); assay type: cell-based; details: 72 hour incubation, growth inhibition; for IC50: Homo sapiens
Protocol: (§1) MiaPaCa2, A2780, and OVCAR5 cells were plated at 4000 cells/well in a 96-well plate and allowed to adhere overnight. The following day, cells were treated with compounds using ˜10-fold dilutions starting at 1000 nM. PrestoBlue reagent (Invitrogen #A13262) was added to cells after 72 hour drug incubation to assess the growth inhibition. Fluorescence excitation/emission was measured at 560/590nM using a SpectraMax M5^e instrument. Growth inhibition was calculated using 100-[100*(Samples-T0)/(T100-T0)]. T0 is the vehicle control reading immediately following drug addition and T100 is the control reading at the end of 72 hour incubation.

OVCAR5 cells = assay: as above; assay type: cell-based; details: growth inhibition; for IC50: Homo sapiens, OVCAR-5, 72 hour incubation
Protocol: as §1

MiaPaCa2 cells = assay: as above; assay type: cell-based; details: Homo sapiens, MIA PaCa-2, 72 hour incubation, growth inhibition
Protocol: as §1

OVCAR5 SP cells = assay: Side population analysis (Hoechst 33342, flow cytometry); details: 60 μM, 15 min at 37° C.
Protocol: (§2) Hoechst 33342 dye (5 μg) was added to each tube and incubated for 45 min at 37° C. Tubes were vortexed slightly after every 5 min. Cells were resuspended in a single cell suspension after centrifugation and kept on ice before acquisition. The side-population was measured by flow cytometry.

[1] = system: proteins in the IKK complex (A2780 cells); assay: Western blot analysis of crosslinking; assay type: cell-based; details: for crosslinking (high molecular weight bands): A2780 cells, 10 pM, 2 hours
Protocol: Crosslinking of proteins in the IKK complex was studied as follows. A2780 cells were treated with 10 pM of analog 19 or 36-252 and incubated for 2 hours.
Cells were washed with cold 1×PBS 3 times and scraped before being lysed by a buffer containing the following: 50 mM Tris, 100 mM NaCl, 1% NP-40, […], 20% SDS, 20×PPl (Na3VO4, NAF, β-glycerophosphate) and 1 mmol/L PMSF. After collection, samples were incubated on ice for 30 minutes and vortexed in 15 minute intervals. Samples were then centrifuged at 14,000rpm for 10 minutes at 4° C. and supernatant was collected. Protein quantification was determined by BCA Protein Assay (Pierce #23225). 20-40ug protein samples were run on 4-15% gradient gels (BioRad) in 1×TRIS-Glycine-SDS Buffer (Research Products International Corporation #T32080) at 120V for -60 minutes and separated by SDS-page electrophoresis. Samples were transferred to a PVDF membrane by semi-dry transfer method (ThermoScientific #35035) run at 18V for ˜35 minutes. Membranes were blocked in 5% milk diluted in 1×-Tris Buffered Saline with 0.1% Tween (1×TBST) for 1 hour at room temperature rocking at low speed. Primary antibodies were diluted in 5% milk in 1×TBST and were rocked gently overnight in 4° C. Membranes were incubated with the appropriate HRP-conjugated secondary antibody for 1 hour at room temperature while gently rocking. 3 washes (10 minute) with 1×TBST occurred before and after secondary antibody. ECL Prime (GE Healthcare #RPB2236) was used to detect protein expression

[2] = system: high grade serous carcinoma (HGSC) ovarian cancer cell lines; assay: Growth inhibition in a panel of HGSC ovarian cancer cell lines; assay type: cell-based
Protocol: The IC50 value of all three inhibitors was greater than 20 μM in this cell line.

A2780 SP cells = assay: Side population analysis (Hoechst 33342, flow cytometry); details: 60 μM, 15 min at 37° C.
Protocol: as §2

[3] = system: TNF-α-induced NFκB activity in A549 luciferase cells; assay: kB-luciferase assay; assay type: cell-based; details: 20, 4, and 0.8 pM for 2 hours, then TNF-a
Protocol: A549 luciferase cells were seeded in white 96-well plates at a density of 50,000 cells per well and incubated overnight. Cells were stimulated with 20 ng/mL TNFα (Panomics) for 3 hours. AlamarBlue (abSerotec) was added (which served as a control for seeding and viability) and the cells were incubated for 3 additional hours. ONE-Glo Luciferase reagent (Promega) was added to each well and cells were incubated at room temperature for an additional 10 minutes before luminescence was measured at 1000 ms integration on a SpectraMax M5e plate reader.
The effect 36-252 and 36-297 on NFκB driven gene expression was evaluated using a cancer cell line specifically designed to monitor the activity of NFκB in response to TNF-α. Cells were seeded onto 96-well plates and allowed to attach overnight. The cells were treated with 36-252 and 36-297 (20, 4, and 0.8 pM) for 2 hours, followed by TNF-a for an additional 6 hours. Under multiplexing conditions the cells were assayed for viability using Alamar Blue (Ab Serotec) and the NFκB transcription activity using the ONE-Glo luciferase system (Promega).

[4] = system: non-transformed HGSC precursor fallopian tube epithelial (FTE) cells FT282; assay: Growth inhibition in non-transformed fallopian tube epithelial cells; assay type: cell-based; details: for IC50: Epithelial cell, non-transformed FT282 cells
Protocol: Monomeric compound 19, 36-252, and 36-242 were evaluated in non-transformed HGSC precursor fallopian tube epithelial (FTE) cells FT282.

[5] = system: caspase 3/7 activity in HGSC cell lines; assay: Caspase 3/7 luciferase assay (apoptosis); assay type: cell-based; details: 1 μM, 6 hours, five HGSC cell lines
Protocol: To determine the effect of 36-252 on apoptosis, a small panel of HGSC cell lines was treated with 1 μM 36-252 for 6 hours (1 μM of flavopiridol was used as a positive control). Caspases are a class of cysteine proteinases that are activated during apoptosis and measuring caspase activity is routinely used to detect activation of apoptotic signaling. Activation of caspase 3/7 was assessed using a luciferase assay.
2500 cells were plated in a 384-well black walled clear bottom plate at 2,500 cells per well in […] per well in the presence of 4.5 μM doxycycline. Cells were incubated overnight to adhere to plate. After cells were treated and plate was allowed to incubate, Caspase-glo (Promega G8093) reagent was added and the plate was allowed to incubate for 30 min. The plate was then read for luminescence at 1000 ms. Presto-blue was added at a volume of 1/10 total volume per well (2.5μL) and cells were allowed to incubate for 10 min. The plate was then read for fluorescence at 560ex/590em. Values were calculated by: ([Luminescence*100]/Fluorescence)/DMSOavg.

[6] = Dose limiting toxicities / MTD study; assay type: in vivo
Protocol: Six to eight-week-old C57 Albino mice (18-22 grams) were used in this study and were randomly assigned. For MTD studies, 3 mice were randomly assigned to six groups. Animals (Group 1-6) received a single dose of (0, 1, 5, 10, 20 and 100 mg/Kg in […] neat DMSO) of 36-252 via intraperitoneal injection. Mice were sacrificed after 48 hours, and blood and serum samples were subjected to hematology and clinical chemistry analyses. For group 7, a 6-day, 5 mg/kg/day study was carried out followed by submission of samples for hematology and clinical chemistry analyses.
In the phase I study, the lethal dose or maximum tolerated dose of 36-252 was evaluated. […] In the phase II study, three mice at 5 mg/kg/day were administered intraperitoneally for six days.

ovarian cancer cells = assay: 3-day growth assay; assay type: cell-based
Source text: In the same assay, reduced compound 36-297.

[7] = panel of HGSC ovarian cancer cell lines
[8] = mouse, in vivo, ip, 5 mg/kg/day

SMILES	IC50 (A2780 cells) [µM]	IC50 (OVCAR5 cells) [µM]	IC50 (MiaPaCa2 cells) [µM]	other results
C=C1CC2(OC1=O)C(=O)N(CCCCCCCN1C(=O)C3(CC(=C)C(=O)O3)c3c(C)ccc(C)c31)c1c(C)ccc(C)c12 (centres unmarked) [Compound 36-280]	0.35 ± 0.05	0.37 ± 0.04	–	–
C=C1CC2(NC1=O)C(=O)Nc1ccccc12 (centres unmarked) [Compound 25-4]	0.99 ± 0.11	3.13 ± 0.55	6.08	–
C=C1CC2(OC1=O)C(=O)N(CCCCCCCCN1C(=O)C3(CC(=C)C(=O)O3)c3ccccc31)c1ccccc12 (centres unmarked) [Compound 36-254]	0.6 ± 0.07	0.32	1.7	–
C=C1CC2(OC1=O)C(=O)N(CCCCCCCCCCN1C(=O)C3(CC(=C)C(=O)O3)c3ccccc31)c1ccccc12 (centres unmarked) [Compound 36-256]	0.49 ± 0.06	0.41 ± 0.06	1.47	–
C=C1CC2(NC1=O)C(=O)N(CCCCN1C(=O)C3(CC(=C)C(=O)N3)c3ccccc31)c1ccccc12 (centres unmarked) [Compound 40-038]	0.4 ± 0.06	0.2 ± 0.04	–	–
C=C1CC2(OC1=O)C(=O)N(CCN1C(=O)C3(CC(=C)C(=O)O3)c3ccccc31)c1ccccc12 (centres unmarked) [Compound 40-059]	0.42 ± 0.04	0.32 ± 0.02	–	–
C=C1CC2(OC1=O)C(=O)N(Cc1ccc(CN3C(=O)C4(CC(=C)C(=O)O4)c4ccccc43)cc1)c1ccccc12 (centres unmarked) [Compound 40-014]	0.31 ± 0.02	0.18 ± 0.01	–	–
CC1CC2(OC1=O)C(=O)N(CCCCCCCN1C(=O)C3(CC(C)C(=O)O3)c3ccccc31)c1ccccc12 (centres unmarked) [Compound 36-297]	–	–	–	IC50 (μM) A2780 (A2780 cells): Inactive; IC50 (μM) OVCAR5 (OVCAR5 cells; 72 hour incubation): Inactive
C=C1CC2(OC1=O)C(=O)N(CCCCCN1C(=O)C3(CC(=C)C(=O)O3)c3ccccc31)c1ccccc12 (centres unmarked) [Compound 36-202]	0.29 ± 0.04	0.09 ± 0.01	0.91	–
C=C1CC2(OC1=O)C(=O)N(CCCN1C(=O)C3(CC(=C)C(=O)O3)c3ccccc31)c1ccccc12 (centres unmarked) [Compound 36-286]	0.23 ± 0.02	0.09 ± 0.01	–	–
C=C1CC2(OC1=O)C(=O)N(CCCCCCCN1C(=O)C3(CC(=C)C(=O)O3)c3ccccc31)c1ccccc12 (centres unmarked) [Compound 36-252]	0.32	0.32	0.76	SP cells eliminated, OVCAR5 (OVCAR5 SP cells): > 85%; crosslinking (high molecular weight bands) [1]: High molecular weight bands in the NFκB and IKBα blots were observed; bands in time course study ([1]; time course study): a band between 150 and 250 kDa in addition to the IKBα-NFκB bands; protein degradation / PARP cleavage ([1]; time course study): degradation of IKK α/β and PARP cleavage; IC50 ([2]; average over HGSC cell lines): 780 nM; potency compared with 19 and 36-242 [2, 7]: more potent than analog 19 and a dimer with a 12-carbon linker 36-242; potency in HGSC panel [2, 7]: sub μM; SP cells eliminated, A2780 (A2780 SP cells): > 98%; inhibition of NFκB transcription activity [3]: Dose-dependent inhibition was observed; IC50 [4]: > 20000 nM; apparent therapeutic index ([4]; FT282 IC50 vs average HGSC IC50): greater than 25; caspase 3/7 activity [5]: Increased caspase 3/7 activity was seen in three of the five HGSC cell lines; Treated/Alive ([6]; 1 mg/Kg, 1 dose, intraperitoneal, mice): (3/3); hematological analysis (WBC, RBC, hemoglobin) ([6]; mouse, in vivo): no significant differences in relative WBC, RBC, or hemoglobin numbers; overt toxicity ([6]; mouse, in vivo, 100 mg/kg): no sign of overt toxicity was observed; mean body weight [6, 8]: nor was any statistical difference in mean body weight observed; mortality and clinical levels [6, 8]: No mortality or abnormal clinical levels were observed
C=C1CC2(OC1=O)C(=O)N(CCCCCCCCCCCCN1C(=O)C3(CC(=C)C(=O)O3)c3ccccc31)c1ccccc12 (centres unmarked) [Compound 36-242]	0.5 ± 0.06	0.47 ± 1.29	1.94	potency relative to monomeric compound 19 (ovarian cancer cells): 10 fold; IC50 [4]: > 20000 nM
C=C1CC2(OC1=O)C(=O)N(CCCCCCCCCCCN1C(=O)C3(CC(=C)C(=O)O3)c3ccccc31)c1ccccc12 (centres unmarked) [Compound 36-258]	0.77 ± 0.14	0.83 ± 0.12	–	–
C=C1CC2(OC1=O)C(=O)N(CCCCCCCCCN1C(=O)C3(CC(=C)C(=O)O3)c3ccccc31)c1ccccc12 (centres unmarked) [Compound 36-204]	1.08 ± 0.01	0.48 ± 0.06	2.16	–
C=C1CC2(OC1=O)C(=O)N(CCCCCCN1C(=O)C3(CC(=C)C(=O)O3)c3ccccc31)c1ccccc12 (centres unmarked) [Compound 36-239]	0.7 ± 0.09	0.3 ± 0.02	1.05	–
C=C1CC2(OC1=O)C(=O)Nc1ccccc12 (centres unmarked) [Compound 19]	–	–	–	crosslinking (high molecular weight bands) [1]: High molecular weight bands in the NFκB and IKBα blots were observed; IC50 [4]: > 20000 nM
